According to US20250288583A1, “Treatment of Mucus Hypersecretion” (priority 2024, published 2025):

Key:
[1] = test system: nasal cavity; test: Nebulizer screening of TRPM8 agonists for sensations in the nasal cavity; assay type: in vivo, human; conditions: NasoNeb nebulizer; for Sensory effects after delivery into the nasal cavity: 3 to 5 sec per nostril
Experimental: Formulations for nebulization with NasoNeb® used a standard recipe of (Table 8): 1% of the active ingredient (1 to 10 mg/mL), 2% Tween 80 (Polysorbate 80), 1 to 5% ethanol, and made up to 100% with water. The mixture is centrifuged in a FlackTek, Inc., Speedmixer for at least 10 min at 3000 rpm. The Speedmixer spins the sample in 3 dimensions. The result is a white homogeneous liquid suspension with some of the solids now dissolved. For dosing, ˜2 to 3 mL is loaded into the canister of the nebulizer. The nebulizer nozzle tip is placed in the nostril and activated by pressing a button for 3 to 5 sec using a clock timer. […] For D-Ala-OiPr a 5-sec activation will deliver 2*0.73 mL*2 mg/ml, or a total dose of 3 mg per nose. The nasal cavity is relatively tolerant to exogenous agents with irritant properties, as many rinses are used for rhinitis and sinusitis. For some p-menthanecarboxamide analogs, a 2% (20 mg/mL) solution is possible and contemplated. An ideal agent reproduces a comfortable cooling or sensations of negative heat flux in the nasal cavity. […] Heat flux refers to the rate of heat transfer per unit area. The sinonasal cavity mucosa differs from philtrum skin and ocular margins in histology, so the choice of the right molecule must be made by experiment. The TRPM8 agonists were chosen for screening using a nebulizer for delivery. The NasoNeb system is powerful and effective for the OMC (FIG. 3). The delivery time per nostril in three to five seconds. […] These parameters were estimated in the initial trials: • Onset and offset of cooling sensations in the nasal cavity. • The intensity and quality of the cooling sensations in the nasal cavity. • Presence of effects such as sneezing or cough after dosing. • Degree of nasal stuffiness on a scale of 0 to 5. • Degree of rhinorrhea and phlegm in nasal secretions. • Questions regarding comfort and sleep at night.

[2] = test system: philtrum skin; test: Cooling duration bioassay on philtrum skin; assay type: in vivo, human
Text: (§1) FIG. 1. Comparison of cooling duration of various p-menthanecarboxamide analogs on philtrum skin versus ocular margins. The philtrum skin is keratinized, but the ocular margins are not. The test substances numbered 1 to 11 are: D-Ala-OiPr, Gly-OiPr, D-Ala-OEt, D-Ala-OMe, D-Ala-GlynPr, GlynPr, D-Ala-OnBu, GlynBu, GlyOEt, L-Ala-OEt, and N-Me-D-Ala-OEt, respectively. Two outliers (1 and 2) were identified as preferred embodiments because they preferentially cool the ocular margins. The nasal cavity surfaces like the ocular margins are not keratinized.
(§2) Cooling agents have been assayed in various ways depending on intended use. For example, for the skin the test substance can be applied on philtrum skin, using descriptions of coolness on a scale of 0 to 3. For the ocular surface, the active ingredient can be applied to the closed eyelids using a wipe. In the oral cavity, drug applications are on the posterior dorsal surface of the tongue. For the oropharyngeal surface, the cooling agent may be applied as an orally disintegrating tablet. The ability of a cooling agent to antagonize a noxious stimuli may also be tested, using nociception from citric acid or chili pepper sauce. Responses are usually measured using a Visual Analog Scale with a numerical rating. For nasal responses, however, such procedures have not been standardized. Some endpoints to consider are open and comfortable breathing, the presence or absence of sniffles, and the secretion of phlegm.

[3] = test system: ocular margins; test: Cooling duration bioassay on eyelids/ocular margins; assay type: in vivo, human; conditions: for Eyelids/Ocular Surface: Table 6, cooling duration, non-keratinized
Text: as §1, §2

[4] = test system: oral cavity; test: Chili-pepper sauce test (oral cavity); assay type: in vivo, human; set-up: scale not given here; conditions: Table 6; grades 0, +, ++ without key
Text: as §2

[5] = target: T1, hTRPM8 channel (Homo sapiens, UniProt Q7Z2W7); test: TRPM8 receptor assay, calcium entry (Fluo-8, FLIPR) in transfected CHO cells; assay type: cell-based; conditions: for EC50: CHO cells transfected with hTRPM8, Fluo-8 calcium kit, FLIPR; for Potency Relative to L-menthol: ratio of TRPM8 EC50 values, menthol = 1.0
T1 construct: host or cells: CHO cells
T1 sequence (Q7Z2W7 whole entry): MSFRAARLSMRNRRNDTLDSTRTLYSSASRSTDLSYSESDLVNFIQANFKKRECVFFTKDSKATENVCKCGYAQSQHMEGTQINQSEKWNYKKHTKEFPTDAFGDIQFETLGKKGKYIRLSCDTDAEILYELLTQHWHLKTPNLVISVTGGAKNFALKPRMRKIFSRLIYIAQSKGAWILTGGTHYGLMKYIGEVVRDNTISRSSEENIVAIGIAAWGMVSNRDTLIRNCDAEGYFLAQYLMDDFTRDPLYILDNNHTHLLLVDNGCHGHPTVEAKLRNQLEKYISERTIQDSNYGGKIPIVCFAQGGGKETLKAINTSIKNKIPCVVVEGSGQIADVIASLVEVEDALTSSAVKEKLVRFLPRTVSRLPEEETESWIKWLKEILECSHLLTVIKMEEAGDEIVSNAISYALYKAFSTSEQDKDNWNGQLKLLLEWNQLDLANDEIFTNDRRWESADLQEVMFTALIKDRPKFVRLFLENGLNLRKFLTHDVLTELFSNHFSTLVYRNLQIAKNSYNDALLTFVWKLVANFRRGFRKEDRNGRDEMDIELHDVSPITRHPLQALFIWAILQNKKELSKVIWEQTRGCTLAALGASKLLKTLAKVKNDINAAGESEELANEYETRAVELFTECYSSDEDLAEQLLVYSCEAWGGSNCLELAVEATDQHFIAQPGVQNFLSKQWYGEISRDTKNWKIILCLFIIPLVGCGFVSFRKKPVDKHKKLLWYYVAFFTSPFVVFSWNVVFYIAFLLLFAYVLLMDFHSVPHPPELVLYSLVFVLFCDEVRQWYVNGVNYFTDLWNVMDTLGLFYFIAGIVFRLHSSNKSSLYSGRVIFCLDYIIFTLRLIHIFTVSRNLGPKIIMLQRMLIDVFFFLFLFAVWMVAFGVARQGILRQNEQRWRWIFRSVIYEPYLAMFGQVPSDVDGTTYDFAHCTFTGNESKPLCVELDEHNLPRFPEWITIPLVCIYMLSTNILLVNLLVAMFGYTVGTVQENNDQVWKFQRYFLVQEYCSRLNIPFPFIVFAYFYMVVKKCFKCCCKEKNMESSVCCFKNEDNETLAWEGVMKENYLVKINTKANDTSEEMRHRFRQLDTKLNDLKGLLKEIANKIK
Text: FIG. 4. Agonist activities of TRPM8 analogs. […] The relative fluorescence (RF) unit on the ordinate represents calcium entry into transfected cells. […] The structures of these compounds are in Table 4.
The applicant has synthesized and examined a series of p-menthanecarboxamides conjugated to amino acid esters. […] This class of molecules is called N-alkylcarbonyl-amino acid esters. GlyOiPr is a p-menthanecarboxamide conjugate of glycine isopropyl (iPr) ester. It is similar in structure to WS-5, a cooling agent used as a food additive. WS-5 is the p-menthane-glycine ethyl (Et) ester, or GlyOEt. […] These in vitro effects were measured in CHO cells transfected with the hTRPM8 channel. Receptor activity was quantified using a Fluo-8 calcium kit and a Fluorescence Imaging Plate Reader ([…]™).

[6] = test system: ostiomeatal complex; test: Case studies: nebulized cooling agent in subjects with rhinitis and rhinosinusitis; assay type: in vivo, human; conditions: NasoNeb delivery in subjects with rhinosinusitis
Text: Eight subjects with rhinitis and rhinosinusitis volunteered to test cooling agents delivered with the NasoNeb® nebulizer (FIG. 3). The results were clear, robust, and evident. No statistical analysis was necessary. In a 3 to 5-day course of nebulization t.i.d., all subjects reported the ability to manage and control stuffed-up breathing in their activities. All reported comfortable sleep. The sounds of sniffling and congestion of the nose (“sniffles”), snorting, or gurgling were still present, but to a lesser degree. The subject felt it was easier to blow out liquids from the nasal cavity onto a tissue, and the volume and frequency of blowing decreased. Viscous yellow mucus was less in volume and density. The number of wipes deposited daily into a waste basket decreased by >50%. The subjects-were cheerful and enthusiastic because nasal discomfort was under control. As one subject remarked: “The stuffed-up nose problem is now history!” Severat of these cases are reported below as “Case Studies.”
The subject was given a NasoNeb® nebulizer (unavailable in China) and five individual bottles containing 15 mL of a 1% GlyOiPr solution (suspended in 2% Tween 80, 5% ethanol, and 92% water). They were shown how to load the NasoNeb canister with about 2 mL of liquid and activate the device for a 3-second dose into each nostril. The recommended dosage was three times a day, starting in the morning and at about 6-hour intervals, and for five days.
The subject agreed to using the NasoNeb nebulizer with a cooling agent. They were given a NasoNeb nebulizer and three bottles, each containing 15 ml of a 1% GlyOiPr solution (suspended in 2% Tween 80, 5% ethanol, and 92% water). They were shown how to load the NasoNeb canister with about 2 mL of liquid and activate the device for a 3-second dose into each nostril. The recommended dosage was three times a day, starting in the morning and at about 6-hour intervals, and for five days. After a 5-day trial, the subject noted a significant improvement in sleep and comfortable breathing. […] Their headaches were gone, and their appetite improved. They were advised to continue using the Nebulizer/coolant for another week and then on an as-needed basis. Their family has noticed that the subject has become less withdrawn, more engaging, and interested in their surroundings.
The subject volunteered for a trial with GlyOiPr. They were given a NasoNeb® machine and a plastic squeeze bottle containing 50 mL of GlyOiPr at 3 mg/mL suspended in 1% ethanol/2% polysorbate 80. They learned how to load the canister and activate the pump. Then, they were instructed to rinse their nose thoroughly first thing in the morning and then use the Nebulizer at 5 sec per nostril to deliver the solution. The procedure was to be repeated at 2 hours and 5 hours later to total three daily activations. The subject was interviewed after dosing for three days. They said breathing was much easier at night after the dosing, and they slept well. Nasal secretions were still present but less in volume. […] They were encouraged to use the Nebulizer as needed but not to exceed three daily doses. Three weeks after the start of the experiment, they reported that they were in complete control of their rhinitis. They would do a single dose at night before sleep and one in the morning when needed. They no longer felt congested, and the headaches were gone. The slimy phlegm in the nostrils was gone, and crusting was absent. Their nose felt clean. Their social life improved.
Their main complaint was episodes at night when they would wake up and not be able to breathe comfortably. Sleep apnea and lung disorders were ruled out, and the diagnosis was rhinosinusitis. This was confirmed by a computerized tomography scan and endoscopic examination by a qualified ENT specialist. They agreed to test the preferred embodiments GlyOnPr, GlyOiPr, D-Ala-OnPr, and D-Ala-OiPr systematically, one after the other.

[7] = Table 6, cooling duration, keratinized skin

Compound | Sensory effects after delivery into the nasal cavity [1] | Philtrum Skin [2, 7] [min] | Eyelids/Ocular Surface [3] [min] | Chili-Pepper Sauce Test [4] | EC50 [5] [nM] | Potency Relative to L-menthol [5] | Cooling duration in the nasal cavity [1] [min] | Philtrum Skin ([2]; Table 7, Gly esters) [min] | Ocular Surface ([3]; Table 7, Gly esters) [min] | Relief of stuffiness and breathing [6]
CC(C)[C@@H]1CC[C@@H](C)C[C@H]1C(=O)NCCc1ccccn1 [FEMA 4549, (1R,2S,5R)-N-(2-(pyridin-2-yl)ethyl)-3-p-menthanecarboxamide, reference compound] | Although potent on TRPM8 receptor, slow onset and absence of refreshing cooling. |  |  |  |  |  |  |  |  | 
CCOC(=O)C(C)NC(=O)[C@@H]1C[C@H](C)CC[C@H]1C(C)C (stereo partly drawn) [L-Ala-OnPr] |  | 22 | 10 | 0 |  |  |  |  |  | 
COC(=O)C(C)NC(=O)[C@@H]1C[C@H](C)CC[C@H]1C(C)C (stereo partly drawn) [D-Ala-OMe] |  | 77 | 120 |  | 590 | 6.4 |  |  |  | 
O=C1NC(c2cccc([N+](=O)[O-])c2)=CCN1c1ccccc1O [icilin, 1-[2-hydroxy]-4-[3-nitrophenyl]-1,2,3,6-tetrahydropyrimidine-2-one, reference compound] | Difficult to form a homogeneous suspension, causes systemic cooling at higher doses |  |  |  |  |  |  |  |  | 
CCOC(=O)C(C)NC(=O)[C@@H]1C[C@H](C)CC[C@H]1C(C)C (stereo partly drawn) [L-Ala-OiPr] |  | 27 | 15 | 0 |  |  |  |  |  | 
CCCCOC(=O)C(C)NC(=O)[C@@H]1C[C@H](C)CC[C@H]1C(C)C (stereo partly drawn) [D-Ala-OnBu] |  | 80 | 40 | 0 | 1030 | 3.7 |  |  |  | 
CCOC(=O)[C@@H](C)NC(=O)[C@@H]1C[C@H](C)CC[C@H]1C(C)C [D-Ala-OEt, (R)-2-[((1R,2S,5R)-2-isopropyl-5-methyl-cyclohexanecarbonyl)-amino]-propionic acid ethyl ester] | Bitter taste, causes coughing | 103 | 180 |  | 270 | 14.0 | ~15 |  |  | 
CCOC(=O)C(C)NC(=O)[C@@H]1C[C@H](C)CC[C@H]1C(C)C (stereo partly drawn) [L-Ala-OnBu] |  | 0 | 0 | 0 |  |  |  |  |  | 
COC(=O)CNC(=O)[C@@H]1C[C@H](C)CC[C@H]1C(C)C [GlyOMe] |  |  |  |  | 500 | 7.6 |  | 10 | 5 | 
CCOC(=O)[C@H](C)NC(=O)[C@@H]1C[C@H](C)CC[C@H]1C(C)C [L-Ala-OEt, (S)-2-[((1R,2S,5R)-2-isopropyl-5-methyl-cyclohexanecarbonyl)-amino]-propionic acid ethyl ester] | Very little cooling, low potency on TRPM8, good only as negative control. | 34 | 0 | 0 | 24000 | 0.2 |  |  |  | 
CCCOC(=O)[C@@H](C)NC(=O)[C@@H]1C[C@H](C)CC[C@H]1C(C)C [D-Ala-OnPr, (R)-2-[((1R,2S,5R)-2-isopropyl-5-methyl-cyclohexanecarbonyl)-amino]-propionic acid n-propyl ester] | Strong penetrating cool at 3 mg/mL. Excellent for viral ARS. | 108 | 65 |  |  |  |  |  |  | provided relief
